Drawing on patent US12600725B2 (Memorial Sloan-Kettering Cancer Center, priority 2013, dated 2026), this text covers IC50 for 38 compounds.

In assay [1] the target is Hsp90α (Homo sapiens, UniProt P07900). Kind of assay: biochemical. The note with it: FP competition, 6 nM Cy3B-GM, 10 nM protein, 4° C. for 24 h.
Assay [2] concerns the target T1, Trap-1 (Homo sapiens, UniProt Q12931).
T1 sequence (Q12931 60-704): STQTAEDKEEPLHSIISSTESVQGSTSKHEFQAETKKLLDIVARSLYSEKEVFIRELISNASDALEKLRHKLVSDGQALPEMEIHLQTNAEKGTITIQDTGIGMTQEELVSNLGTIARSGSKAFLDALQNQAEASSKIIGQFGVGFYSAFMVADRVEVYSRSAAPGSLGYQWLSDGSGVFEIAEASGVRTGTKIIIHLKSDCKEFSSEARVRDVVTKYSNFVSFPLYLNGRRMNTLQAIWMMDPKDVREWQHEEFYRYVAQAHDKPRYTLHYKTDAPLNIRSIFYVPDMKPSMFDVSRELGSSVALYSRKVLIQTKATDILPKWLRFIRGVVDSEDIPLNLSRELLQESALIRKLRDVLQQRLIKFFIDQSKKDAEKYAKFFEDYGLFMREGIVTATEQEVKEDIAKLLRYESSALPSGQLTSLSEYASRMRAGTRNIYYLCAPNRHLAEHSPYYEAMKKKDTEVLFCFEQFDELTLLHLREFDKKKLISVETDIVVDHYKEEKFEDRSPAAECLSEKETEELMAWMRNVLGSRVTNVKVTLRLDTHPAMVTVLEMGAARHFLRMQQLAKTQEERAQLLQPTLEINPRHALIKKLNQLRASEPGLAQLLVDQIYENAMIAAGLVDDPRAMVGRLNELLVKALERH
Kind of assay: biochemical.

Assay [3] addresses Grp94 (Canis lupus familiaris, UniProt P41148). The settings on record: read-out: Grp94; FP competition, 6 nM Cy3B-GM, 10 nM protein, 4° C. for 24 h.
Assay [4] has as its target Hsp90β (Homo sapiens, UniProt P08238).

Chain of Hsp90β (P08238 whole entry): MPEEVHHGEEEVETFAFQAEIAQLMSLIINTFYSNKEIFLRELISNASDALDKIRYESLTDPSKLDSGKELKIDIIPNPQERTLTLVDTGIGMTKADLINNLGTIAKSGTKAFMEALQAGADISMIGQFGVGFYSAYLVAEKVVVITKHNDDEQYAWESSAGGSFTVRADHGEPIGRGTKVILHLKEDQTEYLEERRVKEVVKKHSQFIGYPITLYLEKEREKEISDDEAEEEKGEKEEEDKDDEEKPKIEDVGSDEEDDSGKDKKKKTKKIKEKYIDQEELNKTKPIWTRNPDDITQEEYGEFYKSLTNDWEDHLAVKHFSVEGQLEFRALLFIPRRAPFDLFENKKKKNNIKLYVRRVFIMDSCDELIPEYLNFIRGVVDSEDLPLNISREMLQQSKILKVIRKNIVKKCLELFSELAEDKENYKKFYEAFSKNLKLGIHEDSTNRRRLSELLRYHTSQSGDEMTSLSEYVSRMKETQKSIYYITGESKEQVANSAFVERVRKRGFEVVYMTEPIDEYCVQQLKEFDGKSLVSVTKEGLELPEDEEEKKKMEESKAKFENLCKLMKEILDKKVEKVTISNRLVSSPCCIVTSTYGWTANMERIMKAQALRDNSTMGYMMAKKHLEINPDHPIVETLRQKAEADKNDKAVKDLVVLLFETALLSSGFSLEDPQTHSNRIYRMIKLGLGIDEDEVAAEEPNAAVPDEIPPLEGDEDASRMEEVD
Chain of Grp94 (P41148 with tags, fused parts or gaps DELINS287-327GGGG): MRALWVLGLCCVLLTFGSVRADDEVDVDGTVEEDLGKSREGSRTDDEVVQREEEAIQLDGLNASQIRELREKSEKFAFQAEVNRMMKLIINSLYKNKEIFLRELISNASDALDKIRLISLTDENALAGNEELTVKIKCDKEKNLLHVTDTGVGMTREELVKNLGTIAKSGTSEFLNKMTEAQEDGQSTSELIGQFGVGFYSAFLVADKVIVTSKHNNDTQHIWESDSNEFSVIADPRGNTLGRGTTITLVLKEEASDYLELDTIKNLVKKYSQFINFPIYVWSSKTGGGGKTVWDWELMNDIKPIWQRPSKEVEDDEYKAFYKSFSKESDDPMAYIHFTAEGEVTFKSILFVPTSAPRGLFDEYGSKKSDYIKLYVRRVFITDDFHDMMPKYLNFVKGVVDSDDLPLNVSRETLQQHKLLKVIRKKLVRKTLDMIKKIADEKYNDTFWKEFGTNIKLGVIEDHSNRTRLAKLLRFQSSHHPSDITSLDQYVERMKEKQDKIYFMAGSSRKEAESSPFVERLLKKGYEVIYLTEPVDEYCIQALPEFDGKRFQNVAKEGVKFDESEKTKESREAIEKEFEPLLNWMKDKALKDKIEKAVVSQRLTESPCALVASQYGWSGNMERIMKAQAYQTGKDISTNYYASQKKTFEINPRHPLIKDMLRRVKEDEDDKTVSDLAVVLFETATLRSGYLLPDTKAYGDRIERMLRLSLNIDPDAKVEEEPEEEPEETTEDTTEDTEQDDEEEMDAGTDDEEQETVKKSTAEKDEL

Regarding `CC(C)(CO)NCCn1c(Sc2ccc(Cl)cc2Cl)nc2c(N)ncnc21` [HJP-V-84, 2-((2-(6-Amino-8-((2,4-dichlorophenyl)thio)-9H-purin-9-yl)ethyl)amino)-2-methylpropan-1-ol], the IC50 in assay [1] was found to be 28.9 µM; in assay [2], 4.4 µM; in assay [3], 1900 nM.
On the same counts, the results for `CC(C)(O)CNCCn1c(Sc2ccc(Cl)cc2Cl)nc2c(N)ncnc21` [HJP-V-85, 1-((2-(6-Amino-8-((2,4-dichlorophenyl)thio)-9H-purin-9-yl)ethyl)amino)-2-methylpropan-2-ol] are 9.2 µM, 2.6 µM and 2300 nM.
`N#CCCCn1c(Sc2cc(Cl)cc(Cl)c2)nc2c(N)ncnc21` [PDP-93A, 4-(6-Amino-8-((3,5-dichlorophenyl)thio)-9H-purin-9-yl)butanenitrile]: the IC50 in assay [1] is greater than 50 µM; in assay [4] it was greater than 100 µM; in assay [2], 4.47 ± 0.31 µM; in assay [3] it was 450 ± 30 nM.
As to `N#CCCCn1cnc(N)c2nc(Sc3cc(Cl)cc(Cl)c3)nc1-2` [PDP-93B, 4-(6-Amino-8-((3,5-dichlorophenyl)thio)-3H-purin-3-yl)butanenitrile], the IC50 in assay [1] was greater than 100 µM; in assay [4] it was greater than 100 µM; in assay [2], greater than 100 µM; in assay [3], greater than 100000 nM.
Turning to `CC(Br)CCCn1c(Sc2cc(Cl)cc(Cl)c2)nc2c(N)ncnc21` (stereo not drawn) [PDP-99A, 9-(4-Bromopentyl)-8-((3,5-dichlorophenyl)thio)-9H-purin-6-amine], the IC50 in assay [1] was greater than 100 µM; in assay [4] it was greater than 100 µM; in assay [2], greater than 100 µM; in assay [3], 1520 ± 30 nM.
As to `CC(Br)CCCn1cnc(N)c2nc(Sc3cc(Cl)cc(Cl)c3)nc1-2` (stereo not drawn) [PDP-99B, 3-(4-Bromopentyl)-8-((3,5-dichlorophenyl)thio)-3H-purin-6-amine], the values for the IC50 in assay [1], in assay [2] and in assay [3] were greater than 100 µM, greater than 100 µM and greater than 10000 nM, respectively.
In the case of `Nc1ncnc2c1nc(Sc1cc(Cl)cc(Cl)c1)n2Cc1ccccc1` [PDP-107A, 9-Benzyl-8-((3,5-dichlorophenyl)thio)-9H-purin-6-amine], the IC50 is greater than 100 µM in assay [1], greater than 50 µM in assay [2] and greater than 5000 nM in assay [3].
For the compound `Nc1ncnc2c1nc(Sc1cc(Cl)cc(Cl)c1)n2CCCC(F)(F)F` [PDP-I-15-N9, 8-((3,5-Dichlorophenyl)thio)-9-(4,4,4-trifluorobutyl)-9H-purin-6-amine], the IC50 in assay [2] is greater than 50 µM; in assay [3], 460 ± 40 nM.
`C#CCCCn1c(Sc2cc(Cl)cc(Br)c2)nc2c(N)ncnc21` [PDP-I-53-N9]: the IC50 is greater than 100 µM in assay [2] and 220 ± 20 nM in assay [3].
Regarding `C#CCCCn1c(Sc2ccc(Br)cc2Cl)nc2c(N)ncnc21` [PDP-I-61-N9], the IC50 in assay [4] was greater than 50 µM; in assay [2], 2.62 ± 0.28 µM; in assay [3] it was 280 ± 60 nM.
Regarding `CCCCn1c(Cc2ccc(OC)cc2)nc2c(N)ncnc21` [PU1], the IC50 was 110 ± 20 µM in assay [1], 92 ± 2 µM in assay [4] and 3200 ± 400 nM in assay [3].
On the same counts, the results for `C#CCCCn1c(Sc2ccc(OC)cc2)nc2c(N)ncnc21` [PU-H1] are greater than 100 µM, greater than 100 µM and 1130 ± 200 nM.
`C#CCCCn1c(Sc2cc(Cl)ccc2C(F)(F)F)nc2c(N)ncnc21` [PU-H2]: the IC50 was found to be 6.5 ± 2.3 µM in assay [4] and 500 ± 200 nM in assay [3].
The corresponding values for `C#CCCCn1c(Sc2ccccc2OC)nc2c(N)ncnc21` [PU-H5] are 110 ± 120 µM and 6200 ± 2500 nM.
As to `C#CCCCn1c(Sc2ccccc2Cl)nc2c(N)ncnc21` [PU-H6], the IC50 is greater than 100 µM in assay [1], greater than 100 µM in assay [4] and 350 ± 50 nM in assay [3].
As to `C#CCCCn1c(Sc2ccc(OC)cc2OC)nc2c(N)ncnc21` [PU-H8], the IC50 is 47.4 ± 2.2 µM in assay [1], 22.4 ± 2.8 µM in assay [4] and 34500 ± 3500 nM in assay [3].
`C#CCCCn1c(Sc2ccccc2OC(F)(F)F)nc2c(N)ncnc21` [PU-H9]: the IC50 in assay [1] is greater than 100 µM; in assay [4], greater than 100 µM; in assay [3], 1400 ± 200 nM.
Take `C#CCCCn1cnc(N)c2nc(Sc3cc(C)ccc3C)nc1-2` [PU-H29]: the IC50 in assay [1] was greater than 100 µM; in assay [4] it was greater than 100 µM; in assay [3] it was 185000 ± 15000 nM.
Take `C#CCCCn1c(Sc2ccccc2CO)nc2c(N)ncnc21` [PU-H34]: the values for the IC50 in assay [1], in assay [4] and in assay [3] were greater than 100 µM, greater than 100 µM and 29000 ± 9000 nM, respectively.
As to `C#CCCCn1cnc(N)c2nc(Sc3ccccc3CO)nc1-2` [PU-H35], the values for the IC50 in assay [1], in assay [4] and in assay [3] were greater than 100 µM, greater than 100 µM and greater than 100000 nM, respectively.
As to `C#CCCCn1c(Sc2c(C)cc(C)cc2C)nc2c(N)ncnc21` [PU-H36], the figures for the IC50 in assay [1], in assay [4] and in assay [3] were greater than 250 µM, greater than 250 µM and 2100 ± 560 nM, respectively.
`C#CCCCn1cnc(N)c2nc(Sc3c(C)cc(C)cc3C)nc1-2` [PU-H37]: the results for the IC50 in assay [1], in assay [4] and in assay [3] were greater than 100 µM, greater than 100 µM and 20000 ± 5000 nM, respectively.
On to `C#CCCCn1cnc(N)c2nc(Sc3ccc(Cl)cc3Cl)nc1-2` [PU-H38], for which the IC50 in assay [1] is greater than 500 µM; in assay [4] it was greater than 500 µM; in assay [3] it was 2370 ± 790 nM.
Regarding `C#CCCCn1cnc(N)c2nc(Sc3cc(Cl)ccc3Cl)nc1-2` [PU-H43], the figures for the IC50 in assay [1], in assay [4] and in assay [3] were greater than 100 µM, greater than 100 µM and 35300 ± 5000 nM, respectively.
With `C#CCCCn1cnc(N)c2nc(Sc3cc(C)cc(C)c3)nc1-2` [PU-H45], the IC50 was greater than 100 µM in assay [1], greater than 100 µM in assay [4] and greater than 100000 nM in assay [3].
Regarding `C#CCCCn1cnc(N)c2nc(Sc3ccccc3OC)nc1-2` [PU-H46], the IC50 is greater than 100 µM in assay [1], greater than 100 µM in assay [4] and greater than 100000 nM in assay [3].
As for `C#CCCCn1cnc(N)c2nc(Sc3ccccc3Cl)nc1-2` [PU-H47], the IC50 in assay [1] and in assay [4] was greater than 100 µM in each case.
Turning to `C#CCCCn1cnc(N)c2nc(Sc3ccccc3OC(F)(F)F)nc1-2` [PU-H48], the IC50 was greater than 100 µM in assay [1], greater than 100 µM in assay [4] and 106000 nM in assay [3].
`C#CCCCn1cnc(N)c2nc(Sc3cc(Cl)c(Cl)cc3Cl)nc1-2` [PU-H52]: the IC50 in assay [1] is greater than 100 µM; in assay [4], greater than 100 µM; in assay [3], 2080 ± 1490 nM.
For `C#CCCCn1cnc(N)c2nc(Sc3cc(Cl)ccc3C(F)(F)F)nc1-2` [PU-H53], the IC50 in assay [1] is greater than 100 µM; in assay [4], greater than 100 µM; in assay [3] it was 200000 nM.
`C#CCCCn1cnc(N)c2nc(Sc3cc(Br)ccc3OC)nc1-2` [PU-H63]: the IC50 in assay [1] turned out to be 5.9 ± 0.5 µM; in assay [4], 2.5 ± 0.2 µM; in assay [3], 2300 ± 100 nM.
`CN1CCN(CCn2c(Sc3cc(Cl)cc(Cl)c3)nc3c(N)ncnc32)CC1` [SO-III-39A, 8-((3,5-dichlorophenyl)thio)-9-(2-(4-methylpiperazin-1-yl)ethyl)-9H-purin-6-amine]: the IC50 came to 52.2 µM in assay [1] and 373 nM in assay [3].
Regarding `COC(C)CNCCn1c(Sc2cc(Cl)cc(Cl)c2)nc2c(N)ncnc21` (stereo not drawn) [SO-III-75A, 8-((3,5-dichlorophenyl)thio)-9-(2-((2-methoxypropyl)amino)ethyl)-9H-purin-6-amine], the IC50 in assay [1] worked out at 39.9 µM; in assay [3], 890 nM.
Regarding `Nc1ncnc2c1nc(Sc1cc(Cl)cc(Cl)c1)n2CCCn1ccnc1` [SO-III-103A, 9-(3-(1H-imidazol-1-yl)propyl)-8-((3,5-dichlorophenyl)thio)-9H-purin-6-amine], the IC50 in assay [1] is greater than 10 µM; in assay [3], 203 nM.
For `CC(C)NCCCn1c(Sc2cc(Cl)cc(Cl)c2)nc2c(N)nccc21` [SO-III-154, 2-((3,5-dichlorophenyl)thio)-1-(3-(isopropylamino)propyl)-1H-imidazo[4,5-c]pyridin-4-amine], the figures for the IC50 in assay [1] and in assay [3] were greater than 50 µM and 2590 nM, respectively.
`CC(C)NCCCn1c(Sc2cccc3ccccc23)nc2c(N)nccc21` [SO-IV-03, 1-(3-(isopropylamino)propyl)-2-(naphthalen-1-ylthio)-1H-imidazo[4,5-c]pyridin-4-amine]: the IC50 is greater than 50 µM in assay [1] and greater than 5000 nM in assay [3].
The corresponding values for `Cc1ccc(Sc2nc3c(N)ncn(CCCNC(C)C)c-3n2)c(C)c1` [WS-11, 8-((2,4-Dimethylphenyl)thio)-3-(3-(isopropylamino)propyl)-3H-purin-6-amine] are greater than 100 µM and 25000 nM.
Consider `CC(C)NCCCn1c(Sc2cc(C(F)(F)F)cc(C(F)(F)F)c2)nc2c(N)ncnc21` [WS-14, 8-((3,5-Bis(trifluoromethyl)phenyl)thio)-9-(3-(isopropylamino)propyl)-9H-purin-6-amine], for which the results for the IC50 in assay [1] and in assay [3] were 8.56 µM and 2430 nM, respectively.
